Where a name gives a salt, the structure may show the parent alone.
Target: T1, human MC4 receptor (Homo sapiens, UniProt P32245)
T1 construct: purchased Biolinks K.K; host or cells: HEK-293
Assay: MC4 receptor binding experiment ([125I]Nle4-D-Phe7-α-MSH displacement)
Conditions: human MC4 receptor expressing HEK-293 cell membrane; [125I]Nle4-D-Phe7-α-MSH 0.2 nM, 25° C.
Procedure: The MC4 receptor binding experiment was performed according to the method described in Pharmacology & Toxicology, 79, 161-165, 1996. The human MC4 receptor expressing-cell membrane obtained by expressing the human MC4 receptor in a HEK-293 cell was purchased from Biolinks K.K. The cell membrane was homogenized with 50 mM tris hydrochloride buffer (pH 7.4) containing 2 mM ethylenediaminetetraacetic acid, 10 mM calcium chloride, and 100 μM phenylmethylsulfonyl fluoride. The homogenate was centrifuged at 48,000×g at 4° C. for 20 min. The sediment obtained by centrifugation was rehomogenized with the same buffer, and the homogenate was centrifuged at 48,000×g at 4° C. for 20 min. This procedure was repeated twice. The sediment was suspended in 50 mM tris hydrochloride buffer (pH 7.4) containing 2 mM ethylenediaminetetraacetic acid, 10 mM calcium chloride, 100 μM phenylmethylsulfonyl fluoride, and 0.1% bovine serum albumin at a protein concentration of 100 μg/ml, and the suspension was used as a crude membrane preparation for the binding experiment. The crude membrane preparation (0.25 ml, 25 μg protein) was reacted with [^125I]Nle^4-D-Phe^7-α-MSH (final concentration, 0.2 nM) at 25° C. for 120 min. After completion of the reaction, the reaction solution was filtered by suction, using a cell harvester for the receptor binding experiment, onto a GF/C glass fiber filter paper immersed in 50 mM tris hydrochloride buffer (pH 7.4) containing 0.5% bovine serum for 2 h. Radioactivity on the filter paper was measured using a γ counter. The quantity of binding in the presence of 1 μM Nle^4-D-Phe^7-α-MSH was obtained as nonspecific binding, and specific binding was obtained by deducting the nonspecific binding from the total quantity, binding in the absence of 1 μM Nle^4-D-Phe^7-α-MSH. The test drug was dissolved in 100% DMSO solution and added to the membrane preparation at the same time as [^125I]Nle^4-D-Phe^7-α-MSH. The IC50 value was obtained from the inhibition curve in the range of 10^−10 to 10^−5 M. The binding test results of representative compounds are shown in Table 21 as examples.

T1 sequence (P32245 whole entry): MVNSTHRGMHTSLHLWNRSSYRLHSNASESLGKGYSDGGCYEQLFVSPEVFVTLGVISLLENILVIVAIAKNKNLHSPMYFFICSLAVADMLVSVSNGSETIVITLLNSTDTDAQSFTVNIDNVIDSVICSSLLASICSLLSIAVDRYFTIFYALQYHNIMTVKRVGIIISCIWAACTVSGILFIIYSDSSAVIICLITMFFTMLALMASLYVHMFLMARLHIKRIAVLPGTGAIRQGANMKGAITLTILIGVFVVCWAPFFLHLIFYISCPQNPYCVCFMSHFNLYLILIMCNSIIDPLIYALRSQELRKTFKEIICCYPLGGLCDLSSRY

| Structure (SMILES) | IC50 |
| --- | --- |
| COc1ccc2nc(N[C@@H]3CN(C(=O)Cc4ccc(OC(F)(F)F)cc4)C[C@H]3O)nc(N3CCC(S(C)(=O)=O)CC3)c2c1 [Compound 11-014] | 1.4 nM |
| Cc1cc(N[C@@H]2CCN(S(C)(=O)=O)C2)nc(N[C@@H]2CN(C(=O)Cc3ccc(OC(F)(F)F)cc3)C[C@H]2O)n1 [Compound 13-002] | 25 nM |
| COc1ccc2nc(N[C@H]3CCN(C(=O)Cc4ccc(OC(F)(F)F)cc4)C3)cc(N3CCOCC3)c2c1 [Compound 3-011, (S)-1-(3-(6-methoxy-4-morpholinoquinolin-2-ylamino)pyrrolidin-1-yl)-2-(4-trifluoromethoxyphenyl)ethanone] | 6.8 nM |
| O=C(Cc1ccccc1-c1ccccc1)N1CC[C@H](Nc2nc(N3CCc4ccccc4C3)c3ccc(F)cc3n2)C1 [Compound 1-101] | 68 nM |
| COc1cc(N[C@H]2CCN(C(=O)Cc3ccc(OC(F)(F)F)cc3)C2)nc2ccc(C)cc12 [Compound 3-034] | 16 nM |
| Cc1ccc2nc(N[C@H]3CCN(C(=O)Cc4ccc(OC(F)(F)F)cc4)C3)nc(N(C)C)c2c1 [Compound 1-003] | 18 nM |
| Cc1cc(N2CCCCC2)nc(N[C@@H]2CN(C(=O)Cc3ccc(OC(F)(F)F)cc3)C[C@H]2O)n1 [Compound 13-005] | 21 nM |
| CO[C@@H]1CCN(c2cc(C)nc(N[C@@H]3CN(C(=O)Cc4ccc(OC(F)(F)F)cc4)C[C@H]3O)n2)C1 [Compound 13-004] | 46 nM |
| CS(=O)(=O)C1CCN(c2nc(N[C@H]3CCN(C(=O)Cc4ccc(OC(F)(F)F)cc4)C3)nc3cscc23)CC1 [Compound 8-005] | 12 nM |
| CO[C@@H]1CN(C(=O)Cc2ccc(OC(F)(F)F)cc2)C[C@H]1Nc1cc(N2CCS(=O)(=O)CC2)cc(C)n1 [Compound 14-003] | 7.4 nM |
| COc1ccc2nc(N[C@@H]3CN(C(=O)Cc4ccc(OC(F)(F)F)cc4)C[C@H]3O)nc(N3CCN(C(C)=O)CC3)c2c1 [Compound 11-015] | 1 nM |
| O=C1CN(c2nc(N[C@H]3CCN(C(=O)C4(c5ccc(Cl)cc5)CC4)C3)nc3cc(F)ccc23)CCN1 [Compound 15-003] | 26 nM |
| O=C(Cc1ccc(OC(F)(F)F)cc1)N1C[C@@H](O)[C@H](Nc2nc(N3CCOCC3)c3cc(Cl)ccc3n2)C1 [Compound 11-009] | 6.1 nM |
| O=C1CN(c2nc(N[C@H]3CCN(C(=O)Cc4cc(F)ccc4-c4ccc(OC(F)(F)F)cc4)C3)nc3cc(F)ccc23)CCN1 [Compound 1-133] | 4.4 nM |
| CC(=O)N1CCN(c2nc(N[C@H]3CCN(C(=O)Cc4ccc(OC(F)(F)F)cc4)C3)nc3cscc23)CC1 [Compound 8-004] | 11 nM |
| O=C1CN(c2nc(N[C@H]3CCN(C(=O)Cc4ccccc4-c4ccccc4)C3)nc3ccccc23)CCN1 [Compound 1-128] | 7.3 nM |
| COc1ccc2nc(N[C@H]3CCN(C(=O)Cc4ccc(OC(F)(F)F)cc4)C3)nc(N[C@@H]3CCN(C(C)=O)C3)c2c1 [Compound 1-032] | 0.4 nM |
| Cc1ccc2nc(N[C@H]3CCN(C(=O)Cc4ccc(OC(F)(F)F)cc4)C3)nc(NCCc3ccccn3)c2c1 [Compound 1-019] | 10 nM |
| COc1ccc2nc(N[C@@H]3CN(C(=O)Cc4ccc(OC(F)(F)F)cc4)C[C@H]3OC)cc(C)c2c1 [Compound 12-010] | 3 nM |
| Cc1cc(N2CCS(=O)(=O)CC2)cc(N[C@H]2CCN(C(=O)Cc3ccc(OC(F)(F)F)cc3)C2)n1 [Compound 5-006, 1-((S)-3-(4-(1,1-dioxo-1λ^6-thiomorpholin-4-yl)-6-methylpyridin-2-ylamino)pyrrolidin-1-yl)-2-(4-trifluoromethoxyphenyl)ethanone] | 9.3 nM |
| COc1ccc2nc(N[C@@H]3CN(C(=O)Cc4ccc(OC(F)(F)F)cc4)C[C@H]3O)cc(N3CCOCC3)c2c1 [Compound 12-001] | 2.9 nM |
| COc1ccc2nc(N[C@H]3CCN(C(=O)Cc4ccc(OC(F)(F)F)cc4)C3)nc(N3CCN(C(=O)c4cccnc4)CC3)c2c1 [Compound 1-176] | 1 nM |

Results, then the compound that gave them:

| IC50 | Structure (SMILES) |
| --- | --- |
| 9.5 nM | Cc1cc(N[C@H]2CCN(C(=O)Cc3ccc(OC(F)(F)F)cc3)C2)nc2ccc(O)cc12 [Compound 3-022] |
| 94 nM | CS(=O)(=O)C1CCN(c2cc(N[C@H]3CCN(C(=O)Cc4ccc(OC(F)(F)F)cc4)C3)nc3ccsc23)CC1 [Compound 7-002, (S)-1-(3-(7-(4-methylsulfonylpiperidin-1-yl)thieno[3,2-b]pyridin-5-ylamino)pyrrolidin-1-yl)-2-(4-trifluoromethoxyphenyl)ethanone] |
| 10 nM | CC(=O)N1CCN(c2nc(N[C@@H]3CN(C(=O)Cc4ccc(OC(F)(F)F)cc4)C[C@H]3O)nc3cscc23)CC1 [Compound 8-007] |
| 3.3 nM | COc1ccc2nc(N[C@@H]3CN(C(=O)Cc4ccc(OC(F)(F)F)cc4)C[C@H]3O)cc(OC)c2c1 [Compound 12-017] |
| 14 nM | Cc1cc(N[C@@H]2CN(C(=O)Cc3ccc(OC(F)(F)F)cc3)C[C@H]2O)nc2ccc(O)cc12 [Compound 12-007] |
| 37 nM | O=C(Cc1ccc(OC(F)(F)F)cc1)N1CC[C@H](Nc2nc(N3CCC(N4CCOCC4)CC3)c3ccc(F)cc3n2)C1 [Compound 1-092] |
| 71 nM | CN(C)c1nc(N[C@H]2CCN(C(=O)Cc3ccc(OC(F)(F)F)cc3)C2)nc2ccsc12 [Compound 6-001, (S)-1-(3-(4-dimethylaminothieno[3,2-d]pyrimidin-2-ylamino)pyrrolidin-1-yl)-2-(4-trifluoromethoxyphenyl)ethanone 1 maleate] |
| 0.4 nM | COc1ccc2nc(N[C@H]3CCN(C(=O)Cc4ccc(OC(F)(F)F)cc4)C3)nc(N[C@@H]3CCN(S(C)(=O)=O)C3)c2c1 [Compound 1-040] |
| 20 nM | Cc1cc(N[C@H]2CCN(C(=O)C3(c4ccc(Cl)cc4)CC3)C2)nc2ccc(O)cc12 [Compound 3-038] |
| 39 nM | Cc1cc(N2CCS(=O)(=O)CC2)nc(N[C@H]2CCN(C(=O)Cc3ccc(OC(F)(F)F)cc3)C2)n1 [Compound 4-054] |
| 1.3 nM | CS(=O)(=O)N1CC[C@@H](Nc2nc(N[C@@H]3CN(C(=O)Cc4ccc(OC(F)(F)F)cc4)C[C@H]3O)nc3ccc(Cl)cc23)C1 [Compound 11-008] |
| 36 nM | CO[C@@H]1CN(C(=O)Cc2ccc(OC(F)(F)F)cc2)C[C@H]1Nc1nc(C)cc(N2CCOCC2)n1 [Compound 13-008] |
| 2.4 nM | COc1ccc2nc(N[C@H]3CCN(C(=O)Cc4ccc(OC(F)(F)F)cc4)C3)cc(C)c2c1 [Compound 3-023] |
| 3.4 nM | COc1ccc2nc(N[C@@H]3CN(C(=O)Cc4ccc(OC(F)(F)F)cc4)C[C@H]3OC)cc(OC)c2c1 [Compound 12-018] |
| 1.5 nM | COc1ccc2nc(N[C@H]3CCN(C(=O)Cc4ccc(OC(F)(F)F)cc4)C3)nc(N3CCC(S(C)(=O)=O)CC3)c2c1 [Compound 1-078] |
| 39 nM | O=C(c1ccc(F)cc1)C1CCN(c2nc(N[C@H]3CCN(C(=O)Cc4ccccc4-c4ccccc4)C3)nc3ccccc23)CC1 [Compound 1-073] |
| 78 nM | Cc1cc(N[C@H]2CCN(C(=O)Cc3ccc(OC(F)(F)F)cc3)C2)nc2ccc(F)cc12 [Compound 3-019] |
| 21 nM | CN(C)C(=O)N1CCN(c2nc(N[C@H]3CCN(C(=O)Cc4ccc(OC(F)(F)F)cc4)C3)nc3ccccc23)CC1 [Compound 1-174] |
| 13 nM | Cc1ccc2nc(N[C@@H]3CN(C(=O)Cc4ccc(OC(F)(F)F)cc4)C[C@H]3O)cc(C)c2c1 [Compound 12-004] |
| 30 nM | Cc1cc(N[C@H]2CCN(S(C)(=O)=O)C2)nc(N[C@H]2CCN(C(=O)Cc3ccc(OC(F)(F)F)cc3)C2)n1 [Compound 4-022] |
